Data as given in patent US20110039825A1, “LIGANDS OF ALPHA-ADRENOCEPTORS, DOPAMINE, HISTAMINE, IMIDAZOLINE AND SEROTONIN RECEPTORS AND THEIR USE” (Alla Chem, LLC, priority 2007, published 2011).

Legend:
[1] = molecular target: T1, recombinant human 5-HT1A (Homo sapiens, UniProt P08908); assay: radioligand binding to serotonin receptor 5-HT1A ([3H] 8-OH-DPAT); conditions: 10 μM ligand
T1 construct: expressed in transfected cells; host or cells: CHO
T1 sequence (P08908 1-422): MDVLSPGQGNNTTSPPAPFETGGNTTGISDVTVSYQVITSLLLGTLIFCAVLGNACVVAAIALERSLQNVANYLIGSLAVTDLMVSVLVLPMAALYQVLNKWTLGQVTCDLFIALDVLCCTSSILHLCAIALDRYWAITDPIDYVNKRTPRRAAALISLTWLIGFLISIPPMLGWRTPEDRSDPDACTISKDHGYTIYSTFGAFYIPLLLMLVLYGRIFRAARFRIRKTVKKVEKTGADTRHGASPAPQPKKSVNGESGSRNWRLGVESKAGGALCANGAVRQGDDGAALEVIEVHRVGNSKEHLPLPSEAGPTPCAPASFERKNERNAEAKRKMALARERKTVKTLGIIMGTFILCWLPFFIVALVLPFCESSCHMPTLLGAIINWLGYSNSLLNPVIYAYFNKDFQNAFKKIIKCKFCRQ
From the text: J Pharmacol Exp Ther. 306(1): 301-309, 2003]. […] Metergoline is used as positive control.

[2] = molecular target: T2, serotonin receptor 5-HT1B (Rattus norvegicus, UniProt P28564); assay: radioligand binding to serotonin receptor 5-HT1B ([125I] cyanopindolol); conditions: 10 μM ligand
T2 construct: membrane species are prepared from rat brains (Wistar) by homogenization of species of rat brain-cortices; from tissue; host or cells: rat (Wistar) brain cortex membranes
T2 sequence (P28564 whole entry): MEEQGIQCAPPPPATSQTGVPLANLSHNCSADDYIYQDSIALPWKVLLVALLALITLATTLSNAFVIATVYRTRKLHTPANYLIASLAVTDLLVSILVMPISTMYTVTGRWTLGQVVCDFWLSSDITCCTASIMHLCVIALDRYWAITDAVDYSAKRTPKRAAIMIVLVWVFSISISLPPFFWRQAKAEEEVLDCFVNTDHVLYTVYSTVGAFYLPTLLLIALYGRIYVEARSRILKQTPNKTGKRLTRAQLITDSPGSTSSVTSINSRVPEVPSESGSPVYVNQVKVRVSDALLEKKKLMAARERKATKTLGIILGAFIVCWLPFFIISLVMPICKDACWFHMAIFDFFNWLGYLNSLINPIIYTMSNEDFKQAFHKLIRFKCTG
Method: Screening of the disclosed compounds for potential ability to interact with serotonin receptor 5-HT1B is carried out by method of radioligand binding. For this purpose membrane species are prepared from rat brains (Wistar) by homogenization of species of rat brain-cortices in glass homogenizer with the subsequent separation of plasmatic membranes from cell nuclei, mitochondrias and cell wreckages by differential centrifugation. […] After incubation the samples are filtered in vacuo on glass-microfiber filters G/F (Millipor, USA), filters are washed three times with cold solution of medium and radioactivity is measured by scintillation counter MicroBeta 340 (Perkin Elmer, USA). […] Serotonin is used as positive control.
Tested compounds' binding to the receptor is determined by their ability to displace radioligand and expressed in percent of displacement (% I). Values of % I are calculated according to the following equation:
wherein: TA—is overall radioactivity in the presence of radioligand only, CA—is radioactivity in the presence of radioligand and tested compound and NA—is radioactivity in the presence of radioligand and Serotonin (10 μM).

[3] = molecular target: T3, recombinant human 5-HT2B receptor (Homo sapiens, UniProt P41595); assay: radioligand binding to serotonin receptor 5-HT2B ([3H] Lysergic acid diethylamide); conditions: 10 μM ligand
T3 construct: expressed in transfected cells; host or cells: CHO-K1
T3 sequence (P41595 whole entry): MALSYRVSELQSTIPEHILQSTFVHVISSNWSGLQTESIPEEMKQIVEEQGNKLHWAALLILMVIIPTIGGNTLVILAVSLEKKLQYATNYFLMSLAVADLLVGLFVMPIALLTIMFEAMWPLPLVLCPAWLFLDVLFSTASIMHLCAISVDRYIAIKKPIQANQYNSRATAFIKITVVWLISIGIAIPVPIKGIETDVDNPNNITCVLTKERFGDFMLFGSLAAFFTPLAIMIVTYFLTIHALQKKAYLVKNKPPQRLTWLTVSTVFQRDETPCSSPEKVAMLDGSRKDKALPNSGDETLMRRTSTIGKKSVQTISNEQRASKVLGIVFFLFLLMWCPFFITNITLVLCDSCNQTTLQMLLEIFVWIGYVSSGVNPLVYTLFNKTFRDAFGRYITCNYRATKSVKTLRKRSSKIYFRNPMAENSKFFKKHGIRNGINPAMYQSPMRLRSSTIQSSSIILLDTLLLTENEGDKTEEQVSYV

[4] = tested on: male mice of BALB/c line; assay: Mice Behavior in the Elevated Plus Maze; assay type: in vivo
From the text: The length of each arm of the maze was 30 cm, width is 5 cm, and height of the walls was 15 cm. Two opposite arms were closed from both sides and end faces by transparent walls, the other two arms were lit and opened. A mouse was placed in the center of the maze and for the next five minutes the number of entries into opened and closed arms and the time spent in each type of arms was registered. […] The animals usually avoided opened arms (the preference index is between 0.2 and 0.3). Compounds with tranquilizing action increased this index up to 0.5-0.6 or even more and reduced the number of defecations without changing the overall motion activity of the mice (the total number of their entries to the arms).

[5] = tested on: male mice of BALB/c line; assay: Passive Avoidance of mice in the Shuttle Chamber, memory disturbed by Scopolamine; assay type: in vivo; conditions: Scopolamine 0.3 mg/kg
Method: A shuttle chamber (Ugo Basile, Italy) consisted of two sections was used. […] The sections were connected through a hole which could be overlapped by a vertical door. The floor was made of transverse metal bars on which DC current impulses could be fed. Experiments were carried out in aged male mice of BALB/c line weighing 20-24 grams.
Each group consisted of at least 8 animals. Animal was placed in light section, and latent period of the first entry into dark chamber was registered. Then the vertical door was closed and the animal was punished by 0.6 mA DC current for 3 seconds. After that it was taken back to its homecage. In 22-24 hours the same animal was placed again in light section of the shuttle chamber and latent period of its first entry into dark section, the total time of its stay in light section, and the number of entries into dark section, were registered. Each monitoring lasted for 5 minutes.
Testing was carried out during the day time in isolated laboratory using white noise at level of about 70 decibel above human hearing threshold.
Scopolamine causes the disturbance of training (memory loss) that results in […].

[6] = tested on: mice; assay: Mice Training in Morris Water Maze (Scopolamine); assay type: in vivo; conditions: unitary introduction of active ingredient
Method: Mice Training in Morris Water Maze. A round pool which was filled with water at 20-22° C. was used. A round ceramic platform of 14 cm height was placed in the pool. Animals's behavior was registered with automated computer videosystem in combination with software package of movement analysis Any-maze (Stoelting Co., US). Before testing mice suitable for training were selected. That was done by placing the platform 1 cm above the water level and putting an animal on the platform for 20 seconds. Then the mouse was sunk into the water on the opposite side of the pool, allowed to find the platform and climbed it within 60 seconds, where it was left for additional 20 seconds. After that the mouse was repeatedly immersed into water on the opposite side of the pool and allowed to look for platform. If it failed in finding the platform within 60 seconds the experimentator helped it to find the platform and climb it. If the mice could not find the platform itself in two consecutive attempts it was excluded from experiment.
During the next two days the platform was placed 0.5 centimeter lower the water level. Every day the mice were given four attempts for finding the platform within 60 seconds. The time interval between the attempts was 20 seconds, during which the mice stayed on the platform. Every day before the first attempt mouse was placed on the platform for 20 seconds. The time needed for finding and climbing the platform was registered. The animals were sunk in water in 3 different places on the side of the pool opposite to platform. On each day of two-day testing 35-40 minutes before the beginning of training the mice were injected intraintestinally with physiological solution, Scopolamine or Scopolamine in combination with investigated compound. At least 8 animals were used in each group.
On the third day the platform was removed and each animal was placed one time in the pool for a period of 60 seconds. The time each mouse spent in the area where the platform had been located during the previous days was registered. This time interval was regarded as a measure of effectiveness of training fulfilled during the previous two days. The testing was carried out during the day time in isolated laboratory using “white noise” at level of about 70 decibel above the human hearing threshold.

[7] = tested on: male mice of BALB/c line; assay: Passive Avoidance of mice in the Shuttle Chamber, memory disturbed by MK-801; assay type: in vivo; conditions: MK-801 0.1 mg/kg
Method: The testing was carried out as in example 14. […] Concurrently, physiological solution of MK-801 in combination with active ingredient 1.9 (1) 1/2NDSA was injected intraintestinally to independent group of mice before training

| SMILES | 5-HT1A % inhibition [1] [%] | 5-HT1B % inhibition [2] [%] | 5-HT2B % inhibition [3] [%] | anxiolytic (tranquilizing) action in elevated plus maze ([4]; doses of 0.05 and 0.1 mg/kg) | enhancement of memory disturbed by Scopolamine (passive avoidance) [5] | memory disorders caused by Scopolamine in Morris water maze [6] | anxiolytic (tranquilizing) action in elevated plus maze ([4]; mice BALB/c) | enhancement of memory disturbed by MK-801 (passive avoidance) [7] |
| --- | --- | --- | --- | --- | --- | --- | --- | --- |
| CN1CCc2c(c3cc(F)ccc3n2CCc2ccccc2)C1.Cl [1.1.2(1-6)•HCl] | 16 | 25 | 85 |  |  |  |  |  |
| Cc1ccc2c(c1)c1c(n2CCc2ccc(C)nc2)CCN(C)C1.Cl.Cl [1.1.2(4-2)] |  |  |  | analogous action | improve memory | decreasing memory disorders coused by Scopalomine |  |  |
| CN1CCc2c(c3ccccc3n2Cc2ccccc2)C1 [1.9(1)·1/2NDSA, bis-(5-benzyl-2-methyl-2,3,4,5-tetrahydro-1H-pyrido[4,3-b]indole) naphthalene-1,5-disulfonate] |  |  |  |  | nootropic action |  | anxiolytic (tranquilizing) action which is comparable with the activity of Buspirone and Lorasepam | act as nootropic |
